Reference: US20140323300A1, “HERBICIDAL COMPOUNDS” (SYNGENTA LIMITED, priority 2011, published 2014)

Assays:
Type in all cases: in vivo
[1] = tested on: Alopecurus myosuroides (ALOMY); assay: Post-emergence glasshouse herbicide test; conditions: post-emergence (sprayed after 8 days cultivation), 1000 g/h, evaluated after 13 days, five point scale
Description: (§1) Seeds of a variety of test species are sown in standard soil in pots (Alopecurus myosuroides (ALOMY), Setaria faberi (SETFA), Echinochloa crus-galli (ECHCG), Solanum nigrum (SOLNI), Amaranthus retoflexus (AMARE), Ipomoea hederacea (IPOHE)). After cultivation for one day (pre-emergence) or after 8 days cultivation (post-emergence) under controlled conditions in a glasshouse (at 24/16° C., day/night; 14 hours light; 65% humidity), the plants are sprayed with an aqueous spray solution derived from the formulation of the technical active ingredient in acetone/water (50:50) solution containing 0.5% Tween 20 (polyoxyethelyene sorbitan monolaurate, CAS RN 9005-64-5). Compounds are applied at 1000 g/h. The test plants are then grown in a glasshouse under controlled conditions in a glasshouse (at 24/16° C., day/night; 14 hours light; 65% humidity) and watered twice daily. After 13 days for pre and post-emergence, the test is evaluated for the percentage damage caused to the plant. The biological activities are shown in the following table on a five point scale (5=80-100%; 4=60-79%; 3=40-59%; 2=20-39%; 1=0-19%).

[2] = tested on: Amaranthus retoflexus (AMARE); assay: Post-emergence glasshouse herbicide test; conditions: post-emergence (sprayed after 8 days cultivation), 1000 g/h, evaluated after 13 days, five point scale
Description: as §1

[3] = tested on: Echinochloa crus-galli (ECHCG); assay: Post-emergence glasshouse herbicide test; conditions: post-emergence (sprayed after 8 days cultivation), 1000 g/h, evaluated after 13 days, five point scale
Description: as §1

[4] = tested on: Ipomoea hederacea (IPOHE); assay: Post-emergence glasshouse herbicide test; conditions: post-emergence (sprayed after 8 days cultivation), 1000 g/h, evaluated after 13 days, five point scale
Description: as §1

Setaria faberi (SETFA) [5] = assay: Post-emergence glasshouse herbicide test; conditions: post-emergence (sprayed after 8 days cultivation), 1000 g/h, evaluated after 13 days, five point scale
Description: as §1

Solanum nigrum (SOLNI) [6] = assay: Post-emergence glasshouse herbicide test; conditions: post-emergence (sprayed after 8 days cultivation), 1000 g/h, evaluated after 13 days, five point scale
Description: as §1

[7] = tested on: Alopecurus myosuroides (ALOMY); assay: Pre-emergence glasshouse herbicide test; conditions: pre-emergence (sprayed after one day cultivation), 1000 g/h, evaluated after 13 days, five point scale
Description: as §1

[8] = tested on: Amaranthus retoflexus (AMARE); assay: Pre-emergence glasshouse herbicide test; conditions: pre-emergence (sprayed after one day cultivation), 1000 g/h, evaluated after 13 days, five point scale
Description: as §1

[9] = tested on: Echinochloa crus-galli (ECHCG); assay: Pre-emergence glasshouse herbicide test; conditions: pre-emergence (sprayed after one day cultivation), 1000 g/h, evaluated after 13 days, five point scale
Description: as §1

[10] = tested on: Ipomoea hederacea (IPOHE); assay: Pre-emergence glasshouse herbicide test; conditions: pre-emergence (sprayed after one day cultivation), 1000 g/h, evaluated after 13 days, five point scale
Description: as §1

Setaria faberi (SETFA) [11] = assay: Pre-emergence glasshouse herbicide test; conditions: pre-emergence (sprayed after one day cultivation), 1000 g/h, evaluated after 13 days, five point scale
Description: as §1

Solanum nigrum (SOLNI) [12] = assay: Pre-emergence glasshouse herbicide test; conditions: pre-emergence (sprayed after one day cultivation), 1000 g/h, evaluated after 13 days, five point scale
Description: as §1

SMILES | percentage damage caused to the plant, POST Application ALOMY [1] | percentage damage caused to the plant, POST Application AMARE [2] | percentage damage caused to the plant, POST Application ECHCG [3] | percentage damage caused to the plant, POST Application IPOHE [4] | percentage damage caused to the plant, POST Application SETFA (Setaria faberi (SETFA) [5]) | percentage damage caused to the plant, POST Application SOLNI (Solanum nigrum (SOLNI) [6]) | percentage damage caused to the plant, PRE Application ALOMY [7] | percentage damage caused to the plant, PRE Application AMARE [8] | percentage damage caused to the plant, PRE Application ECHCG [9] | percentage damage caused to the plant, PRE Application IPOHE [10] | percentage damage caused to the plant, PRE Application SETFA (Setaria faberi (SETFA) [11]) | percentage damage caused to the plant, PRE Application SOLNI (Solanum nigrum (SOLNI) [12])
Cc1cnn(-c2ccc(C(F)(F)F)nc2C)c(=O)c1O [Compound 1.020] | 3 (3=40-59%) | 5 (5=80-100%) | 5 (5=80-100%) | 5 (5=80-100%) | 5 (5=80-100%) | 5 (5=80-100%) | 3 (3=40-59%) | 5 (5=80-100%) | 5 (5=80-100%) | 5 (5=80-100%) | 5 (5=80-100%) | 5 (5=80-100%)
CS(=O)(=O)c1ccc(-n2ncc(Cl)c(O)c2=O)c(Cl)c1C1=NOCC1 [Compound 1.017] | 5 (5=80-100%) | 5 (5=80-100%) | 5 (5=80-100%) | 5 (5=80-100%) | 5 (5=80-100%) | 5 (5=80-100%) | 5 (5=80-100%) | 5 (5=80-100%) | 5 (5=80-100%) | 5 (5=80-100%) | 5 (5=80-100%) | 5 (5=80-100%)
CCc1cnn(-c2ccc(S(C)(=O)=O)c(C3=NOCC3)c2C)c(=O)c1O [Compound 1.005] | 5 (5=80-100%) | 5 (5=80-100%) | 5 (5=80-100%) | 5 (5=80-100%) | 5 (5=80-100%) | 5 (5=80-100%) | 4 (4=60-79%) | 5 (5=80-100%) | 4 (4=60-79%) | 4 (4=60-79%) | 2 (2=20-39%) | 5 (5=80-100%)
CSc1cnn(-c2ccc(Cl)cc2S(C)(=O)=O)c(=O)c1O [Compound 1.048] | 1 (1=0-19%) | 4 (4=60-79%) | 3 (3=40-59%) | 3 (3=40-59%) | 2 (2=20-39%) | 4 (4=60-79%) | 1 (1=0-19%) | 4 (4=60-79%) | 3 (3=40-59%) | 3 (3=40-59%) | 2 (2=20-39%) | 4 (4=60-79%)
O=c1c(O)c(Cl)cnn1-c1ccc(C(F)(F)F)cc1C(F)(F)F [Compound 1.015] | 5 (5=80-100%) | 5 (5=80-100%) | 5 (5=80-100%) | 5 (5=80-100%) | 5 (5=80-100%) | 5 (5=80-100%) | 1 (1=0-19%) | 5 (5=80-100%) | 2 (2=20-39%) | 4 (4=60-79%) | 1 (1=0-19%) | 5 (5=80-100%)
